Assay results: article PMC5943945, “Design, Synthesis and Cytotoxic Evaluation of Novel Chalcone Derivatives Bearing Triazolo[4,3-a]-quinoxaline Moieties as Potent Anticancer Agents with Dual EGFR Kinase and Tubulin Polymerization Inhibitory Effects” (Molecules : A Journal of Synthetic Chemistry and Natural …, 2017)
Where “and” joins values, the source holds several entries; their conditions need not be identical. Equal values may be shown once. Read-outs that look alike come from different tables or passages of the source.

How the values were obtained:
[1] = system: HepG-2; test: MTT cytotoxicity assay, HepG-2; format: cell-based; details: Homo sapiens, HepG2, 72 h exposure, mean ± SD
Method: (§1) The newly synthesized chalcone compounds 7a–k were evaluated for their in vitro anticancer activity against three cancer cell lines—HCT-116, MCF-7 and HepG-2—according to the MTT assay method using doxorubicin as reference drug.
(§2) The in vitro anticancer activities of the selected chalcone compounds against three cancer cell lines: human colon carcinoma (HCT-116), human hepatocellular carcinoma (HEPG-2), and human breast adenocarcinoma (MCF-7) were evaluated as described with some modifications. Target tumor cells were grown to log phase in DMEM medium supplemented with 10% fetal bovine serum. After diluting to 1 × 10^5 cells mL^−1 with the medium, 100 μL of the obtained cell suspension was added to each well of 96-well culture plates. Subsequently, incubation was performed at 37 °C in 5% CO2 atmosphere for 48 h before the cytotoxicity assessment. Tested samples at preset concentrations were added to 6 wells with doxorubicin being employed as a positive reference. After 72 h exposure period, 25 μL of PBS containing 2.5 mg mL^−1 of MTT was added to each well. After 4 h, the medium was replaced by 150 μL DMSO to dissolve the purple formazan crystals produced. The absorbance at 570 nm of each well was measured with an ELISA plate reader. The data represented the mean of three independent experiments in triplicate and were expressed as means ± SD.

[2] = system: MCF-7; test: MTT cytotoxicity assay, MCF-7; format: cell-based; details: Homo sapiens, MCF7, 72 h exposure, mean ± SD
Method: as §1, §2

[3] = system: HCT-116; test: MTT cytotoxicity assay, HCT-116; format: cell-based; details: Homo sapiens, 72 h exposure, mean ± SD
Method: as §1, §2

[4] = system: HCT-116, MCF-7 and HepG-2; test: MTT cytotoxicity, statements across the three cell lines; format: cell-based, human; details: for anticancer activity in words: three cell lines, MTT; for IC50: Homo sapiens, range over HCT-116, MCF-7, HepG-2, read-out: IC50 against the three cell lines (range given)
Method: as §1, §2

[5] = target: T1, tubulin (Homo sapiens, UniProt P07437+P68363); test: Tubulin polymerization / ELISA for Tubulin Beta (TUBb) in HCT-116 cells; format: cell-based
T1 construct: The HCT-116 cell line was obtained from the American Type Culture Collection; endogenous in cells; host or cells: HCT-116
T1 sequence (P07437 whole entry): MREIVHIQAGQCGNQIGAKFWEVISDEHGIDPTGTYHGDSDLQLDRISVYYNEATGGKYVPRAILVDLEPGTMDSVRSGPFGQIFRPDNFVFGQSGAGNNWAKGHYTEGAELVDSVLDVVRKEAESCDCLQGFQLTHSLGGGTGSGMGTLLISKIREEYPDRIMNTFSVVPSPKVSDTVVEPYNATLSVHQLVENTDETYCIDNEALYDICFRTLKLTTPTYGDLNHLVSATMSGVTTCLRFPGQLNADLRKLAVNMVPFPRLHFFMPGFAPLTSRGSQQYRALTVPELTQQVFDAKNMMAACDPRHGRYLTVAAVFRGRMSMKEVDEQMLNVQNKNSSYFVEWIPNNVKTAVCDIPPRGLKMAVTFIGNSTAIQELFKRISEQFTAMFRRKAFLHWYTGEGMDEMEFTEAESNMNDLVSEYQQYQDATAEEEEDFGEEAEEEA
T1 sequence (P68363 whole entry): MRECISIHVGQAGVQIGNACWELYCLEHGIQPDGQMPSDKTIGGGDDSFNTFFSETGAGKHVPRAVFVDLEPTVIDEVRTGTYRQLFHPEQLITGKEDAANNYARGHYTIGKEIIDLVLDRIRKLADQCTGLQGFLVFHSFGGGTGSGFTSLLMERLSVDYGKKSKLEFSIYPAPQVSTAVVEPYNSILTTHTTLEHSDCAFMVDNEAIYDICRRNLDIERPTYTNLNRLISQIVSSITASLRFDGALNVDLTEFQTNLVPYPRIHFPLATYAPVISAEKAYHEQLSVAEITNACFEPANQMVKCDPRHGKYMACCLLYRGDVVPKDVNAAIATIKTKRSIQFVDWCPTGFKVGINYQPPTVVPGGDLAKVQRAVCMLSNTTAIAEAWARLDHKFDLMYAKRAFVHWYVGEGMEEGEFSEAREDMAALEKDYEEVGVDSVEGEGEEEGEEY
Method: Tubulin is the principal component of the eukaryotic cytoskeleton and participates in several crucial cellular processes, including cell replication.
Plate cells (cells density 1.2–1.8 × 10^3 cells/well) in a volume of […] complete growth medium and […] of the tested compound per well in a 96-well plate for 18–24 h before the enzyme assay for tubulin. […] Standards or samples are then added to the appropriate microtiter plate wells with a biotin-conjugated antibody specific to TUBb. Next, avidin conjugated to horseradish peroxidase (HRP) is added to each microplate well and incubated. […] The enzyme-substrate reaction is terminated by the addition of sulphuric acid solution and the color change is measured spectrophotometrically at a wavelength of 450 ± 10 nm. The concentration of TUBb in the samples is then determined by comparing the O.D. of the samples to the standard curve.

[6] = target: T2, EGFR TK (Homo sapiens, UniProt P00533); test: EGFR inhibition assay (HTScan EGFR kinase assay kit); format: biochemical; details: averages of three independent experiments; compounds tested at concentration of 10 μM; 400 μM ATP
T2 construct: purchased Cell Signaling Technology
T2 sequence (P00533 25-1210): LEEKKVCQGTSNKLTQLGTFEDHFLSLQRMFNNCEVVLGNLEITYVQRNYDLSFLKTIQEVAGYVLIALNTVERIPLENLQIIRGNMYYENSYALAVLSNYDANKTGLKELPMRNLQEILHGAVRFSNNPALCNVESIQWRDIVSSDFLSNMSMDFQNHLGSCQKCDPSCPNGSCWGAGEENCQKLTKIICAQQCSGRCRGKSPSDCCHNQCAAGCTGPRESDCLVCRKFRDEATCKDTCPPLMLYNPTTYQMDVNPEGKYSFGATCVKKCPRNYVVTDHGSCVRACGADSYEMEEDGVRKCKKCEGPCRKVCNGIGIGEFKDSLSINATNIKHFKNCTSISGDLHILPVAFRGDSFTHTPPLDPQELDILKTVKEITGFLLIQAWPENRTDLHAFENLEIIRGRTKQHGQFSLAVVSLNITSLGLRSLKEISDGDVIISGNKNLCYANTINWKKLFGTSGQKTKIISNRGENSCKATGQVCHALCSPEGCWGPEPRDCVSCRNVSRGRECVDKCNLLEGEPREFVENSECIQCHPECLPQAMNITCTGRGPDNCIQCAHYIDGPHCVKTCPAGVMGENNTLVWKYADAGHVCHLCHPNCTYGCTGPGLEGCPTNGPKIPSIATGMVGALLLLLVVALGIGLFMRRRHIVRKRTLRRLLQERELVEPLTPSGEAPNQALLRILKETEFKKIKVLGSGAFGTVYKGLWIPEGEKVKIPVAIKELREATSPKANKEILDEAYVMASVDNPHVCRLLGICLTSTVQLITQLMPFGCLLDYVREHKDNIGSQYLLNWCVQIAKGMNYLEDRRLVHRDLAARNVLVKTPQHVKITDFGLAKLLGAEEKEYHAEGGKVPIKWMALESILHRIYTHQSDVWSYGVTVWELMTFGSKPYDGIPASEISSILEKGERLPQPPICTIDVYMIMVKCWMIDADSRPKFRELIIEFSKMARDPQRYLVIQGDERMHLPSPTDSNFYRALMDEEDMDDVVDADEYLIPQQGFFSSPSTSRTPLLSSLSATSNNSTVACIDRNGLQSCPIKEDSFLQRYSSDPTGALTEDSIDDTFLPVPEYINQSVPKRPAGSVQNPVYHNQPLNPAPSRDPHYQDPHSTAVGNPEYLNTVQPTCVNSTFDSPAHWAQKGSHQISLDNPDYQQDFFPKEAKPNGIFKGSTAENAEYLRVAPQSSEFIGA
Method: As the designed compounds had good antiproliferative activity, in vitro EGFR inhibition capability was firstly evaluated for the target cytotoxic derivatives to see whether their cytotoxicity was mediated by kinase inhibition. […]. EGFR kinase activity was assessed using HTScan EGFR kinase assay kits (Cell Signaling Technology, Danvers, MA, USA). The experiments were performed according to the manufacturer’s instructions. […] Phosphorylated substrate was captured with strapavidin-coated 96-well plates. The level of phosphorylation was monitored by anti-phosphotyrosine and europium-labeled secondary antibodies (DELFIA, Perkin-Elmer, Akron, OH, USA). The enhancement solution was added at the end of the assay and enzyme activity was measured in a Victor II 1420 microplate reader (Wallac, Boston, MA, USA) at […].

[7] = averages of two independent experiments, read-out: Tubulin Polymerization (IC50 µM)

SMILES	melting point [°C]	IC50 [5, 7] [µM]	IC50 [6]	IC50 ([5]; abstract text, read-out: antitubulin polymerization activity (abstract)) [µM]	IC50 [1] [µM]	IC50 [2] [µM]	IC50 [3] [µM]	anticancer activity in words [4]	IC50 [4] [µM]
CCc1nnc2c(Cl)nc3ccccc3n12 [Compound 5, 4-Chloro-1-ethyl-[1,2,4]triazolo[4,3-a]quinoxaline]	158 to 160				322 ± 0.15	246 ± 0.13	236 ± 0.1		
CCc1nnc2c(Nc3ccc(C(C)=O)cc3)nc3ccccc3n12 [Compound 6, 1-(4-((1-ethyl-[1,2,4]triazolo[4,3-a]quinoxalin-4-yl)amino)phenyl)ethan-1-one]	235 to 237				446 ± 0.2	410 ± 0.25	411 ± 0.21		
CCc1nnc2c(Nc3ccc(C(=O)/C=C/c4ccc(C)cc4)cc3)nc3ccccc3n12 [Compound 7d, (E)-1-(4-((1-Ethyl-[1,2,4]triazolo[4,3-a]quinoxalin-4-yl)amino)phenyl)-3-(p-tolyl)prop-2-en-1-one]	247 to 249		> 100 µM		> 100	93.4 ± 0.14	> 100	low activity	
CCc1nnc2c(Nc3ccc(C(=O)/C=C/c4ccc(Cl)cc4)cc3)nc3ccccc3n12 [Compound 7i, (E)-3-(4-Chlorophenyl)-1-(4-((1-ethyl-[1,2,4]triazolo[4,3-a]quinoxalin-4-yl)amino)phenyl)prop-2-en-1-one]	255 to 257	> 100	> 100 µM		> 100	> 100	> 100		
CCc1nnc2c(Nc3ccc(C(=O)/C=C/c4ccc(Cl)cc4Cl)cc3)nc3ccccc3n12 [Compound 7j, (E)-3-(2,4-Dichlorophenyl)-1-(4-((1-ethyl-[1,2,4]triazolo[4,3-a]quinoxalin-4-yl)amino)phenyl)prop-2-en-1-one]	250 to 252	> 100	> 100 µM		> 100	> 100	> 100		
CCc1nnc2c(Nc3ccc(C(=O)/C=C/c4c(Cl)cccc4Cl)cc3)nc3ccccc3n12 [Compound 7k, (E)-3-(2,6-Dichlorophenyl)-1-(4-((1-ethyl-[1,2,4]triazolo[4,3-a]quinoxalin-4-yl)amino)phenyl)prop-2-en-1-one]	250 to 252	> 100	> 100 µM		> 100	> 100	19.7 ± 0.25		
COc1cccc2c1C(=O)c1c(O)c3c(c(O)c1C2=O)C[C@@](O)(C(=O)CO)C[C@@H]3O[C@H]1C[C@H](N)[C@H](O)[C@H](C)O1 [Doxorubicin, reference compound]					0.22 ± 0.01	0.27 ± 0.08	1.55 ± 0.03		

More lines, main results first:

melting point [°C]	IC50 [5, 7] [µM]	IC50 [6]	IC50 ([5]; abstract text, read-out: antitubulin polymerization activity (abstract)) [µM]	SMILES	IC50 [1] [µM]	IC50 [2] [µM]	IC50 [3] [µM]	anticancer activity in words [4]	IC50 [4] [µM]
260 to 262	77.1 ± 0.21	0.661 ± 0.00011 µM		CCc1nnc2c(Nc3ccc(C(=O)/C=C/c4ccccc4)cc3)nc3ccccc3n12 [Compound 7a, (E)-1-(4-((1-Ethyl-[1,2,4]triazolo[4,3-a]quinoxalin-4-yl)amino)phenyl)-3-phenylprop-2-en-1-one]	105.2 ± 0.5	58.92 ± 0.32	57.49 ± 0.29	did not show significant activity	
264 to 266	18.1 ± 0.3	0.127 to 0.136 µM and 0.127 µM		CCc1nnc2c(Nc3ccc(C(=O)/C=C/c4ccccc4OC)cc3)nc3ccccc3n12 [Compound 7b, (E)-1-(4-((1-Ethyl-[1,2,4]triazolo[4,3-a]quinoxalin-4-yl)amino)phenyl)-3-(2-methoxyphenyl)prop-2-en-1-one]	30.72 ± 0.12	24.04 ± 0.12	25.6 ± 0.03		1.65 to 34.3
261 to 263	43.4 ± 0.01	0.127 to 0.136 µM and 0.136 µM		CCc1nnc2c(Nc3ccc(C(=O)/C=C/c4ccccc4O)cc3)nc3ccccc3n12 [Compound 7c, (E)-1-(4-((1-Ethyl-[1,2,4]triazolo[4,3-a]quinoxalin-4-yl)amino)phenyl)-3-(2-hydroxyphenyl)prop-2-en-1-one]	17.32 ± 0.12	22.17 ± 0.11	19.8 ± 0.23		
	14.7 ± 0.11	0.083 ± 0.04 µM		CCc1nnc2c(Nc3ccc(C(=O)/C=C/c4ccc(OC)cc4)cc3)nc3ccccc3n12 [Compound 7e, (E)-1-(4-((1-Ethyl-[1,2,4]triazolo[4,3-a]quinoxalin-4-yl)amino)phenyl)-3-(4-methoxyphenyl)prop-2-en-1-one]	34.28 ± 0.14	8.23 ± 0.25	9.57 ± 0.11		1.65 to 34.3
253 to 255	> 100	> 50 µM		CCc1nnc2c(Nc3ccc(C(=O)/C=C/c4ccc(O)cc4)cc3)nc3ccccc3n12 [Compound 7f, (E)-1-(4-((1-Ethyl-[1,2,4]triazolo[4,3-a]quinoxalin-4-yl)amino)phenyl)-3-(4-hydroxyphenyl)prop-2-en-1-one]	> 100	> 100	18.1 ± 0.15		
	8.84 ± 0.02	0.039 µM	8.4	CCc1nnc2c(Nc3ccc(C(=O)/C=C/c4cc(OC)c(OC)c(OC)c4)cc3)nc3ccccc3n12 [Compound 7g, (E)-1-(4-((1-Ethyl-[1,2,4]triazolo[4,3-a]quinoxalin-4-yl)amino)phenyl)-3-(3,4,5-trimethoxyphenyl)prop-2-en-1-one]	8.58 ± 0.06	1.65 ± 0.13	3.61 ± 0.18		1.65 to 34.3
260 to 262	> 100	> 100 µM		CCc1nnc2c(Nc3ccc(C(=O)/C=C/c4ccc([N+](=O)[O-])cc4)cc3)nc3ccccc3n12 [Compound 7h, (E)-1-(4-((1-Ethyl-[1,2,4]triazolo[4,3-a]quinoxalin-4-yl)amino)phenyl)-3-(4-nitrophenyl)prop-2-en-1-one]	> 100	> 100	> 100		
